Assays:
[1] = tested on: SH-SY5Y cells; assay: H2O2-induced oxidative stress model in SH-SY5Y cells; type: cell-based, human; conditions: H2O2 1 mM 15 min
Protocol: The SH-SY5Y cells were seeded in 96-well plates at a density of 3.5 × 10^4/well in 100 μL of RPMI supplemented with FBS for 24 h. Then, the cell medium was aspirated, and the cells were treated with different concentrations of the compounds—1, 10, and 50 µM for 90 min. Afterwards, the SH-SY5Y cells were washed with PBS and were exposed to hydrogen peroxide (H2O2) (1 mM in PBS for 15 min) to induce oxidative stress. All well contents were replaced by fresh culture medium and incubated for 24 h. MTT assay was used to evaluate the amount of attached viable cells. Negative controls (cells without H2O2 treatment) were considered as 100% protection and H2O2-treated cells as 0% protection.
To evaluate the possible neuroprotective effects of the compounds, the SH-SY5Y cells were pre-treated with different concentrations (1, 10, 50 µM) for 90 min and then exposed to H2O2 (1 mM) for 15 min. The cell viability of all compounds was measured to verify their protective effect against the toxicity of hydrogen peroxide.

[2] = tested on: SH-SY5Y cells; assay: MTT cell viability assay (cytotoxicity), SH-SY5Y
Outline: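 SH-SY5Y cells seeded at 2 × 10^4 cells/well, adhered 24 h, then exposed to compounds (1–500 μM) for 24 h at 37 °C, 5% CO2; DMSO ≤0.5% as solvent control. MTT (0.5 mg/mL) added for 3 h, formazan dissolved, absorbance read at 570 nm; ≥6 wells per concentration.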

[3] = tested on: bEnd3 cells; assay: MTT cell viability assay (cytotoxicity), bEnd3; type: cell-based, mouse; conditions: 24 h, 1–500 µM
Outline: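 bEnd3 mouse brain endothelial cells (0.7 × 10^4/well, 24 h adherence) were exposed to compounds at 1–500 μM for 24 h, with 0.5% DMSO as solvent control. Viability was read by MTT reduction (0.5 mg/mL, 3 h, 37 °C) as absorbance at 570 nm.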

Row | Compound | protective effect: increased cell viability of SH-SY5Y vs. H2O2 group ([1]; 1 µM pre-treatment 90 min) | protective effect: increased cell viability of SH-SY5Y vs. H2O2 group ([1]; 10 µM pre-treatment 90 min) | protective effect: increased cell viability of SH-SY5Y vs. H2O2 group ([1]; 50 µM pre-treatment 90 min) | IC50 [2] | IC50 [3]
1 | COc1ccc2[nH]cc(CCNC(C)=O)c2c1 [Melatonin] | 19% | 42% | 64% |  | 
2 | N′-(4-Hydroxy-2-methoxybenzylidene)-3-(1H-indol-3-yl)propanehydrazide [Compound 3e] |  |  |  | > 500 µM | 85.5 µM

— article PMC10135567, “New Indole-3-Propionic Acid and 5-Methoxy-Indole Carboxylic Acid Derived Hydrazone Hybrids as Multifunctional Neuroprotectors” (Antioxidants, 2023)
